Experiment: Stability of reconstituted [^18F]-FPPEGA in 1× PBS buffer
Assay type: physicochemical
Details: 37° C.
Method: An aqueous [^18F]-Fluoride solution (2.0 ml, 33.3 GBq/900 mCi) was purchased from P.E.T. Net® Pharmaceuticals in West Point PA and directly transferred to a Sep-Pak light QMA [The Sep-Pak light QMA cartridge was pre-conditioned sequentially with 5 ml of 0.5 M potassium bicarbonate, 5 ml of deionized water, and 5 ml of MeCN before use.] Upon completion of this transfer, the aqueous [^18F] fluoride was released from the QMA Sep-Pak by the sequential addition of potassium carbonate (15 mg/ml; 0.1 ml) followed by a mixture of potassium carbonate (30 mg/ml, 0.1 ml), 4,7,13,16,21,24-hexaoxa-1,10-diazabicyclo[8.8.8]hexacosane (15 mg, 0.04 mmol) and 1.2 ml of MeCN. The solvent was evaporated under a gentle stream of nitrogen at 90° C. and vacuum. Azeotropic drying was repeated twice with 1 ml portions of acetonitrile to generate the anhydrous K.2.2.2/K[^18F]F complex. […] The entire contents of the crude reaction mixture was then transferred, loaded, and purified using reverse phase HPLC under the following conditions: HPLC Column: Luna C18 250×10 Solvent A: 0.1% TFA in DI water; solvent B: 0.1% TFA in acetonitrile at a flow rate of 4.6 ml/minute using isocratic method 32% B while the UV was monitored at 280 nm. […]

stable in 100% 1× PBS buffer: over 1 hour
Compound: [N-]=[N+]=NCCOCCOCCOCCOc1cccnc1[18F] [[^18F]-3-(2-(2-(2-(2-azidoethoxy)ethoxy)ethoxy)ethoxy)-2-fluoropyridine]

— patent US11103605B2, “PET-imaging immunomodulators” (BRISTOL-MYERS SQUIBB COMPANY, priority 2016, dated 2021)
